In patent US20250084177A1, “ANTI-CD98 ANTIBODIES AND USES THEREOF” (HUAHUI HEALTH LTD., priority 2021, published 2025):

Molecular target: T1, LAT1/CD98 heterodimer HAT complex (Homo sapiens, UniProt P08195+Q01650)
T1 construct: in the tumor cell lines earlier found to be highly sensitive to S1-F4 treatment; endogenous in cells
Test: Amino acid (HPG) uptake assay
Format: cell-based
Settings: HepG2 and Raji cells; antibody 15 μg/ml, BCH 10 mM
Procedure: Cells were incubated with 15 μg/ml antibody for 24 hr in growth medium. Then they were equilibrated for 30 min at 37° C. with Met-free DMEM. HPG (Thermo Fisher Scientific) was added to the cells at a final concentration of 70 μM. […] After 2-3 hr, cells were washed with PBS and lysed with lysis buffer (1% SDS in 50 mM Tris-HCL, pH 8.0) with complete protease inhibitors (Roche). HPG in cell lysis was biotinylated according to manufacturer instructions (Thermo Fisher Scientific). Then cell lysis was transferred into 96 well plate (Nunc, MaxiSorp™) and incubated at 4° C. overnight. The amount of HGP in cell lysates was then detected by streptavidin-HRP (Thermo Fisher Scientific) in an ELISA-based assay.
Amino acid uptake assay was conducted to analyze the effect of S1-F4 in amino acid transport. L-Homopropargylglycine (HPG), a methionine mimic, was used as a traceable substrate for the LAT1 (L-type/large neutral amino acid transporter 1)/CD98 heterodimer HAT complex, and the LAT1/CD98 complex inhibitor BCH (2-amino-2-norbornane-carboxylic acid) was used as a positive control for disrupting transport function.

T1 sequence (P08195 103-630 limits assumed): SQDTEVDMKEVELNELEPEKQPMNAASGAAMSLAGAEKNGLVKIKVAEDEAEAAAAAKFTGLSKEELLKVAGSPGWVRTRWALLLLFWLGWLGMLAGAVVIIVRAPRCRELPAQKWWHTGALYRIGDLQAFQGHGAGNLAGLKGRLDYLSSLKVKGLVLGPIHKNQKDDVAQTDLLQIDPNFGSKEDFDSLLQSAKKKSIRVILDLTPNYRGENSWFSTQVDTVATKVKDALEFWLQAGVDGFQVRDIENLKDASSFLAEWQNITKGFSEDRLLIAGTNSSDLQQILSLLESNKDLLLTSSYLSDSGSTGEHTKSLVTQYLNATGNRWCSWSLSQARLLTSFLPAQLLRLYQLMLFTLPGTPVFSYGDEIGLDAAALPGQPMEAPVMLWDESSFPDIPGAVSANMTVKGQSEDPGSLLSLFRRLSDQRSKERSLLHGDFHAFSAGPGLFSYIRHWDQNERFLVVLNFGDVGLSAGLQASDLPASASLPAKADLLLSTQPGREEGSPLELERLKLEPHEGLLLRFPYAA
T1 sequence (Q01650 whole entry): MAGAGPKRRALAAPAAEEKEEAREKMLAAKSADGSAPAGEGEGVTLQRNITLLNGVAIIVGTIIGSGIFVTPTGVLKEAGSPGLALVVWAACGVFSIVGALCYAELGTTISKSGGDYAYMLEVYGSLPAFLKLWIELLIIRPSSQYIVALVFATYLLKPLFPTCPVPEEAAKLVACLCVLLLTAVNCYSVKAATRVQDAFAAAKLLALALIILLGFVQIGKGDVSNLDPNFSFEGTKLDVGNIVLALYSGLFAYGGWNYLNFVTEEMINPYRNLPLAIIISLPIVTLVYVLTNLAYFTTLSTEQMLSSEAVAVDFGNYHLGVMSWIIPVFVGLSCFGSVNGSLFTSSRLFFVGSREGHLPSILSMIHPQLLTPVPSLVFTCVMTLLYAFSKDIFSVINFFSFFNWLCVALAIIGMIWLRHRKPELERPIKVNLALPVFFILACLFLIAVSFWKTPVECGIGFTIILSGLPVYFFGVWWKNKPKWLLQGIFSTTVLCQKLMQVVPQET

HPG uptake / HAT complex transport activity: impaired HAT complex transport activity
Compound: NC1(C(=O)O)CC2CCC1C2 (stereo not shown) [BCH, 2-amino-2-norbornane-carboxylic acid]
